Values quoted from earlier work, collected in patent US20140248600A1, “BLOOD TREATMENT APPARATUS ADAPTED TO PRESERVE PARTS THEREOF” (Gambro Lundia AB, priority 2011, published 2014).

Test system: C. albicans
Conditions: resulting pH: acetic acid 3.6; citric acid 2.4; succinic acid 2.8; tartaric acid 2.3; fumaric acid 2.6; maleic acid 2.0; control pH 5.5

Structure (SMILES) | Growth of C. albicans with acid added to the medium
CC(=O)O [acetic acid] | grew as well as the control
O=C(O)C(O)C(O)C(=O)O (stereo not drawn) [tartaric acid] | grew as well as the control
O=C(O)CCC(=O)O [succinic acid] | grew as well as the control
O=C(O)/C=C\C(=O)O [maleic acid] | inhibition of growth
O=C(O)/C=C/C(=O)O [fumaric] | inhibition of growth
O=C(O)CC(O)(CC(=O)O)C(=O)O [citric acid] | grew as well as the control
